The test system of data set [1] is multi-resistant protein (MRP) efflux proteins. The experiment in a line: PET Logan graphical analysis of brain VT after probenecid. It is filed as in vivo, Sprague–Dawley rats. The following applies: for Kp: Sprague-Dawley, rat, iv, with probenecid 150 mg/kg i.v., after probenecid 150 mg·kg^−1 i.v., n = 2, metabolite-corrected. The text has this:
(§1) Following cannulation of the femoral vein, animals were positioned in pairs in a double LSO/LYSO layer high-resolution research tomograph (CTI/Siemens, Knoxville, TN, USA). First, for attenuation and scatter correction purposes, a transmission scan was acquired using a 740-MBq two-dimensional fan-collimated ^137Cs (662 keV) moving point source. Next, a dynamic emission scan was acquired immediately following administration of 17.1 ± 2.1 MBq (mean ± SD) ^11C]phenytoin to each rat. Two animals had one single ^11C]phenytoin scan; two animals had two consecutive scans, and two had three consecutive scans. Finally, all animals underwent an ^18F]FDG scan before being euthanized. Tariquidar, 15 mg·kg^−1, was used to completely block P-gp, while probenecid, 150 mg·kg^−1, was used to inhibit multi-resistant protein (MRP) efflux proteins. Tariquidar and probenecid were administered i.v. 20 min prior to the scan start as a 10-min infusion. All animals, except one, were scanned without any treatment prior to the first ^11C]phenytoin scan. Of the animals that had two scans, one underwent two post-tariquidar scans (animal 4, Table 1). […] Animals that underwent three consecutive scans had one baseline, one post probenecid and one post-tariquidar scan. During each scan, emission data were acquired for 60 min in list mode and rebinned into the following frame sequence: 7 × 10, 1 × 20, 3 × 30, 2 × 60, 2 × 150, 2 × 300 and 4 × 600 s. Following corrections for decay, dead time, attenuation, random and scatter, scans were reconstructed using a 3D ordinary Poisson ordered subsets expectation maximization algorithm. […] PET image data were analyzed using the freely available software package Amide 0.9 [31]. A magnetic resonance (MR)-based rat brain atlas was used to define five regions of interest (ROIs): the hippocampus, occipital cortex, parietal cortex, caudate putamen and cerebellum. The MR atlas including all ROIs was aligned visually with the summed ^18F]FDG image for each rat. ROIs were then projected onto all frames of all ^11C]phenytoin scans, resulting in ^11C]phenytoin time-activity curves for each scan and rat.
(§2) During each [^11C]phenytoin scan, arterial blood samples of 0.1 mL were taken at 20 and 40 s and at 1, 2, 5, 15, 30 and 60 min after [^11C]phenytoin injection. For animals that underwent three scans, the amount of blood withdrawn was reduced by replacing the two samples at 15 and 30 min with a single 20-min sample. Plasma was obtained by centrifugation at 4,000 rpm for 5 min at 4°C, and activity in both plasma and whole blood was measured in an automated 1282 Compugamma CS Universal Gamma Counter (LKB Wallac, Turku, Finland), cross-calibrated against the PET scanner. Standardized uptake values (SUVs) as a function of time were derived by normalizing measured radioactivity concentrations against injected dose and body weight.
(§3) To obtain a model independent estimate of the brain-to-plasma partition coefficient, often referred to as volume of distribution, Logan graphical analysis was used. Before Logan analysis, both brain and plasma concentrations were corrected for labeled metabolites. As metabolite fractions were not measured at each plasma or mid-frame time point, linear regression was used to estimate the fraction of intact ^11C]phenytoin at each time point.

On the set-up of data set [2]: method as in PMID 98619. The following applies: dosage of 14 mg/kg, rhesus monkeys; cited from earlier work.
The subject of data set [3] is P-gp. The experiment in a line: PET Logan graphical analysis of brain VT, baseline and after tariquidar P-gp block. It is filed as in vivo, Sprague–Dawley rats. The conditions noted are these: for Kp: Sprague-Dawley; for Kp / Increase in cerebral distribution volume (VT) after tariquidar compared with baseline: rat; for P-gp substrate character: conclusion from tariquidar predosing studies in rats; for Increase in cerebral distribution volume (VT) after tariquidar compared with baseline: tariquidar 15 mg·kg^−1 predosing.
Description: as §1, §2, §3

SMILES strings stand for the structures. “Also recorded” adds a separate entry of the source. Where two headings read alike, the source gives them in different places.

Regarding `O=C1N[11C](=O)NC1(c1ccccc1)c1ccccc1` [[^11C]phenytoin], the Kp is 0.57 ± 0.01 in data set [1] (caudate putamen (relative to plasma), read-out: VT (Logan), caudate putamen); 0.61 ± 0.01 in data set [1] (cerebellum (relative to plasma), read-out: VT (Logan), cerebellum); 0.59 in data set [1] (hippocampus (relative to plasma), read-out: VT (Logan), hippocampus); 0.59 in data set [1] (occipital cortex (relative to plasma), read-out: VT (Logan), occipital cortex); 0.57 ± 0.03 in data set [1] (parietal cortex (relative to plasma), read-out: VT (Logan), parietal cortex); 0.98 ± 0.08 in data set [3] (caudate putamen (relative to plasma), intravenous, baseline, n = 5, metabolite-corrected plasma input and brain data, read-out: VT (Logan), caudate putamen). The Kp in data set [3] (caudate putamen (relative to plasma), iv, with tariquidar 15 mg/kg i.v., after tariquidar 15 mg·kg^−1 i.v., n = 5, metabolite-corrected, read-out: VT (Logan), caudate putamen) stood at 1.48 ± 0.12; in data set [3] (cerebellum (relative to plasma), intravenous, baseline, n = 5, metabolite-corrected plasma input and brain data, read-out: VT (Logan), cerebellum), 1.02 ± 0.08; in data set [3] (cerebellum (relative to plasma), iv, with tariquidar 15 mg/kg i.v., after tariquidar 15 mg·kg^−1 i.v., n = 5, metabolite-corrected, read-out: VT (Logan), cerebellum), 1.48 ± 0.09; in data set [3] (hippocampus (relative to plasma), intravenous, baseline, n = 5, metabolite-corrected plasma input and brain data, read-out: VT (Logan), hippocampus), 0.96 ± 0.09; in data set [3] (hippocampus (relative to plasma), iv, with tariquidar 15 mg/kg i.v., after tariquidar 15 mg·kg^−1 i.v., n = 5, metabolite-corrected, read-out: VT (Logan), hippocampus) it was 1.43 ± 0.07; in data set [3] (occipital cortex (relative to plasma), intravenous, baseline, n = 5, metabolite-corrected plasma input and brain data, read-out: VT (Logan), occipital cortex) it was 0.91 ± 0.06. For the same compound, the Kp was 1.3 ± 0.11 in data set [3] (occipital cortex (relative to plasma), iv, with tariquidar 15 mg/kg i.v., after tariquidar 15 mg·kg^−1 i.v., n = 5, metabolite-corrected, read-out: VT (Logan), occipital cortex); 0.91 ± 0.08 in data set [3] (parietal cortex (relative to plasma), intravenous, baseline, n = 5, metabolite-corrected plasma input and brain data, read-out: VT (Logan), parietal cortex); 1.35 ± 0.11 in data set [3] (parietal cortex (relative to plasma), iv, with tariquidar 15 mg/kg i.v., after tariquidar 15 mg·kg^−1 i.v., n = 5, metabolite-corrected, read-out: VT (Logan), parietal cortex). For the same compound, the “Change in VT after probenecid (interaction with MRP)” value in data set [1] (probenecid 150 mg·kg^−1, n = 2, animals in poor condition) was “no indication of an increase in VT”. The Brain uptake entry in data set [2] was “high brain uptake”. The P-gp substrate character result in data set [3] is given as “rather weak P-gp substrate; also recorded: moderate P-gp substrate”; in data set [3] (listed as 11C]phenytoin) it was “rather moderate affinity for P-gp”. Moreover, the results for the “Increase in cerebral distribution volume (VT) after tariquidar compared with baseline” value in data set [3] and in data set [3] (listed as 11C]phenytoin) were 45% and “about 45%”, respectively.

Source of the values: article PMC3506555, “[^11C]phenytoin revisited: synthesis by [^11C]CO carbonylation and first evaluation as a P-gp tracer in rats” (EJNMMI Research, 2012).
